Common to all, as to type: biochemical, Hepatitis C virus
Assay [1] has as its target T1, GT1a D168A NS3/4A protease (UniProt P27958, D1194A, species not given).
T1 construct: rows headed: Ki (nM) D168A; Ki D168A; other: D168A variant
The essentials:
(§1)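 Enzyme (GT1a wild type or D168A mutant, 2 nM) was preincubated with inhibitor dilutions for 1 h at room temperature in pH 7.5 Tris buffer with glycerol, DTT, LDAO and 4% DMSO.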

Assay [2] concerns the target GT1a D168A NS3/4A protease. The following applies: fold change in Ki, D168A relative to WT. In a few lines:
as §1

Assay [3] addresses T2, wild-type GT1a NS3/4A protease (UniProt P27958).
T2 construct: Ki WT; other: wild-type HCV NS3/4A protease
In a few lines: as §1

The target of assay [4] is GT1a R155K NS3/4A protease (UniProt P27958, R1181K, species not given). The procedure:
(§2) For each assay, 2 nM of NS3/4A protease (GT1a, R155K and D168A) was pre-incubated at room temperature for 1 h with increasing concentration of inhibitors in assay buffer (50 mM Tris, 5% glycerol, 10 mM DTT, 0.6 mM LDAO, and 4% dimethyl sulfoxide, pH 7.5). Inhibition assays were performed in non-binding surface 96-well black half-area plates (Corning) in a reaction volume of 60 μL. […] Three independent data sets were collected for each inhibitor with each protease construct. […] Gibbs free energy of binding was calculated using the following equation: ΔG=RTlnKi

Assay [5] concerns the target GT1a R155K NS3/4A protease. The following applies: fold change in Ki, R155K relative to WT. On the procedure: as §2
The mark [6] stands for this setting: read-out: Ki (nM) D168A, Table 8, linear inhibitors.
The mark [7] stands for this setting: read-out: Ki D168A, D168A variant.
Setting [8] is: read-out: Ki (nM) WT, Table 8, linear inhibitors.
[9] abbreviates: read-out: Ki WT, wild-type HCV NS3/4A protease.
Setting [10] is: read-out: Ki (nM) R155K, Table 8, linear inhibitors.
[11] abbreviates: read-out: Ki R155K, R155K variant.

Like-named read-outs stand apart in the source and are kept apart here.

For `C=C[C@@H]1C[C@]1(NC(=O)[C@@H]1C[C@@H](Oc2nc3cc(OC)ccc3nc2C(C)C)CN1C(=O)[C@@H](NC(=O)OC(C)(C)C)C(C)(C)C)C(=O)NS(=O)(=O)C1CC1` [Compound 9c, tert-Butyl ((S)-1-((2S,4R)-2-(((1R,2S)-1-((cyclopropylsulfonyl)carbamoyl)-2-vinylcyclopropyl)carbamoyl)-4-((3-isopropyl-7-methoxyquinoxalin-2-yl)oxy)pyrrolidin-1-yl)-3,3-dimethyl-1-oxobutan-2-yl)carbamate], the Ki (in general, a dissociation constant, usually derived from enzyme kinetics or from competition with a known ligand) in assay [1] (setting [6]) is 1090 ± 137 nM; in assay [1] (setting [7]) it was 1090 ± 137 nM; in assay [3] (setting [8]), 32 ± 5.1 nM; in assay [3] (setting [9]) it was 32 ± 5.1 nM; in assay [4] (setting [10]) it was 49 ± 11 nM; in assay [4] (setting [11]), 49 ± 11 nM. Moreover, the “Ki D168A (fold change)” value in assay [2] was determined as 34. Besides, the “Ki R155K (fold change)” value in assay [5] is 1.5.

`C=C[C@@H]1C[C@]1(NC(=O)[C@@H]1C[C@@H](Oc2nc3cc(OC)ccc3nc2C(F)(F)F)CN1C(=O)[C@@H](NC(=O)OC(C)(C)C)C(C)(C)C)C(=O)NS(=O)(=O)C1CC1` [Compound 9e, tert-Butyl ((S)-1-((2S,4R)-2-(((1R,2S)-1-((cyclopropylsulfonyl)carbamoyl)-2-vinylcyclopropyl)carbamoyl)-4-((7-methoxy-3-(trifluoromethyl)quinoxalin-2-yl)oxy)pyrrolidin-1-yl)-3,3-dimethyl-1-oxobutan-2-yl)carbamate]: the Ki in assay [1] (setting [6]) is 723 ± 80 nM; in assay [1] (setting [7]), 723 ± 80 nM; in assay [3] (setting [8]) it was 87 ± 18 nM; in assay [3] (setting [9]) it was 87 ± 18 nM; in assay [4] (setting [10]), 24 ± 3.3 nM; in assay [4] (setting [11]), 24 ± 3.3 nM. In addition, the “Ki D168A (fold change)” value in assay [2] is 8. For the same molecule, the “Ki R155K (fold change)” value in assay [5] was 0.3.

In the case of `C=C[C@@H]1C[C@]1(NC(=O)[C@@H]1C[C@@H](Oc2nc3cc(OC)ccc3nc2CC)CN1C(=O)[C@@H](NC(=O)OC(C)(C)C)C(C)(C)C)C(=O)NS(=O)(=O)C1(C)CC1` [Compound 10a, tert-Butyl ((S)-1-((2S,4R)-4-((3-ethyl-7-methoxyquinoxalin-2-yl)oxy)-2-(((1R,2S)-1-(((1-methylcyclopropyl)sulfonyl)carbamoyl)-2-vinylcyclopropyl)carbamoyl)pyrrolidin-1-yl)-3,3-dimethyl-1-oxobutan-2-yl)carbamate], the Ki is 385 ± 31 nM in assay [1] (setting [6]); 385 ± 31 nM in assay [1] (setting [7]); 16 ± 1.3 nM in assay [3] (setting [8]); 16 ± 1.3 nM in assay [3] (setting [9]); 14 ± 1.1 nM in assay [4] (setting [10]); 14 ± 1.1 nM in assay [4] (setting [11]). For the same molecule, the “Ki D168A (fold change)” value in assay [2] turned out to be 24. Also, the “Ki R155K (fold change)” value in assay [5] is recorded as 0.9.

As to `C=C[C@@H]1C[C@]1(NC(=O)[C@@H]1C[C@@H](Oc2nc3cc(OC)ccc3nc2C)CN1C(=O)[C@@H](NC(=O)OC(C)(C)C)C(C)(C)C)C(=O)NS(=O)(=O)C1(C)CC1` [Compound 10b, tert-Butyl ((S)-1-((2S,4R)-4-((7-methoxy-3-methylquinoxalin-2-yl)oxy)-2-(((1R,2S)-1-(((1-methylcyclopropyl)sulfonyl)carbamoyl)-2-vinylcyclopropyl)carbamoyl)pyrrolidin-1-yl)-3,3-dimethyl-1-oxobutan-2-yl)carbamate], the Ki in assay [1] (setting [6]) came out at 265 ± 26 nM; in assay [1] (setting [7]) it was 265 ± 26 nM; in assay [3] (setting [8]), 14 ± 2.1 nM; in assay [3] (setting [9]) it was 14 ± 2.1 nM; in assay [4] (setting [10]) it was 14 ± 1.7 nM; in assay [4] (setting [11]) it was 14 ± 1.7 nM. In assay [2], the “Ki D168A (fold change)” value is given as 19. Moreover, the “Ki R155K (fold change)” value in assay [5] is given as 1.0.

In the case of `C=C[C@@H]1C[C@]1(NC(=O)[C@@H]1C[C@@H](Oc2nc3cc(OC)ccc3nc2C(C)C)CN1C(=O)[C@@H](NC(=O)OC(C)(C)C)C(C)(C)C)C(=O)NS(=O)(=O)C1(C)CC1` [Compound 10c, tert-Butyl ((S)-1-((2S,4R)-4-((3-isopropyl-7-methoxyquinoxalin-2-yl)oxy)-2-(((1R,2S)-1-(((1-methylcyclopropyl)sulfonyl)carbamoyl)-2-vinylcyclopropyl)carbamoyl)pyrrolidin-1-yl)-3,3-dimethyl-1-oxobutan-2-yl)carbamate], the Ki stood at 1180 ± 170 nM in assay [1] (setting [6]); 1180 ± 170 nM in assay [1] (setting [7]); 29 ± 9.4 nM in assay [3] (setting [8]); 29 ± 9.4 nM in assay [3] (setting [9]); 27 ± 5.6 nM in assay [4] (setting [10]); 27 ± 5.6 nM in assay [4] (setting [11]). Moreover, the “Ki D168A (fold change)” value in assay [2] came out at 41. Besides, the “Ki R155K (fold change)” value in assay [5] is reported as 0.9.

Turning to `C=C[C@@H]1C[C@]1(NC(=O)[C@@H]1C[C@@H](Oc2nc3cc(OC)ccc3nc2C(F)(F)F)CN1C(=O)[C@@H](NC(=O)OC(C)(C)C)C(C)(C)C)C(=O)NS(=O)(=O)C1(C)CC1` [Compound 10e, tert-Butyl ((S)-1-((2S,4R)-4-((7-methoxy-3-(trifluoromethyl)quinoxalin-2-yl)oxy)-2-(((1R,2S)-1-(((1-methylcyclopropyl)sulfonyl)carbamoyl)-2-vinylcyclopropyl)carbamoyl)pyrrolidin-1-yl)-3,3-dimethyl-1-oxobutan-2-yl)carbamate], the Ki was 513 ± 50 nM in assay [1] (setting [6]); 513 ± 50 nM in assay [1] (setting [7]); 46 ± 9.6 nM in assay [3] (setting [8]); 46 ± 9.6 nM in assay [3] (setting [9]); 12 ± 1.7 nM in assay [4] (setting [10]); 12 ± 1.7 nM in assay [4] (setting [11]). Besides, the “Ki D168A (fold change)” value in assay [2] is given as 11. Besides, the “Ki R155K (fold change)” value in assay [5] was 0.3.

Turning to `C=C[C@@H]1C[C@]1(NC(=O)[C@@H]1C[C@@H](Oc2nc3cc(OC)ccc3nc2CC)CN1C(=O)[C@@H](NC(=O)OC1CCCC1)C(C)(C)C)C(=O)NS(=O)(=O)C1CC1` [Compound 11a, Cyclopentyl ((S)-1-((2S,4R)-2-(((1R,2S)-1-((cyclopropylsulfonyl)carbamoyl)-2-vinylcyclopropyl)carbamoyl)-4-((3-ethyl-7-methoxyquinoxalin-2-yl)oxy)pyrrolidin-1-yl)-3,3-dimethyl-1-oxobutan-2-yl)carbamate], the Ki in assay [1] (setting [6]) was 350 ± 30 nM; in assay [1] (setting [7]), 350 ± 30 nM; in assay [3] (setting [8]), 9.8 ± 2 nM; in assay [3] (setting [9]), 9.8 ± 2 nM; in assay [4] (setting [10]), 15 ± 2.2 nM; in assay [4] (setting [11]), 15 ± 2.2 nM. Further, the “Ki D168A (fold change)” value in assay [2] was found to be 36. Besides, the “Ki R155K (fold change)” value in assay [5] is listed as 1.5.

For the molecule `C=C[C@@H]1C[C@]1(NC(=O)[C@@H]1C[C@@H](Oc2nc3cc(OC)ccc3nc2C(C)C)CN1C(=O)[C@@H](NC(=O)OC1CCCC1)C(C)(C)C)C(=O)NS(=O)(=O)C1CC1` [Compound 11c, Cyclopentyl ((S)-1-((2S,4R)-2-(((1R,2S)-1-((cyclopropylsulfonyl)carbamoyl)-2-vinylcyclopropyl)carbamoyl)-4-((3-isopropyl-7-methoxyquinoxalin-2-yl)oxy)pyrrolidin-1-yl)-3,3-dimethyl-1-oxobutan-2-yl)carbamate], the Ki in assay [1] (setting [6]) was determined as 985 ± 106 nM; in assay [1] (setting [7]), 985 ± 106 nM; in assay [3] (setting [8]), 17 ± 3.2 nM; in assay [3] (setting [9]), 17 ± 3.2 nM; in assay [4] (setting [10]), 55 ± 11 nM; in assay [4] (setting [11]) it was 55 ± 11 nM. For the same molecule, the “Ki D168A (fold change)” value in assay [2] turned out to be 58. Further, in assay [5], the “Ki R155K (fold change)” value came to 3.

Take `C=C[C@@H]1C[C@]1(NC(=O)[C@@H]1C[C@@H](Oc2nc3cc(OC)ccc3nc2C(F)(F)F)CN1C(=O)[C@@H](NC(=O)OC1CCCC1)C(C)(C)C)C(=O)NS(=O)(=O)C1CC1` [Compound 11e, Cyclopentyl ((S)-1-((2S,4R)-2-(((1R,2S)-1-((cyclopropylsulfonyl)carbamoyl)-2-vinylcyclopropyl)carbamoyl)-4-((7-methoxy-3-(trifluoromethyl)quinoxalin-2-yl)oxy)pyrrolidin-1-yl)-3,3-dimethyl-1-oxobutan-2-yl)carbamate]: the Ki in assay [1] (setting [6]) turned out to be 703 ± 63 nM; in assay [1] (setting [7]), 703 ± 63 nM; in assay [3] (setting [8]), 34 ± 8.3 nM; in assay [3] (setting [9]), 34 ± 8.3 nM; in assay [4] (setting [10]) it was 26 ± 7.7 nM; in assay [4] (setting [11]) it was 26 ± 7.7 nM. Moreover, the “Ki D168A (fold change)” value in assay [2] is listed as 21. The “Ki R155K (fold change)” value in assay [5] worked out at 0.8.

As to `C=C[C@@H]1C[C@]1(NC(=O)[C@@H]1C[C@@H](Oc2nc3cc(OC)ccc3nc2CC)CN1C(=O)[C@@H](NC(=O)OC1CCCC1)C(C)(C)C)C(=O)NS(=O)(=O)C1(C)CC1` [Compound 12a, Cyclopentyl ((S)-1-((2S,4R)-4-((3-ethyl-7-methoxyquinoxalin-2-yl)oxy)-2-(((1R,2S)-1-(((1-methylcyclopropyl)sulfonyl)carbamoyl)-2-vinylcyclopropyl)carbamoyl)pyrrolidin-1-yl)-3,3-dimethyl-1-oxobutan-2-yl)carbamate], the Ki in assay [1] (setting [6]) turned out to be 145 nM; in assay [1] (setting [7]) it was 145 ± 14 nM; in assay [3] (setting [8]), 6.9 nM; in assay [3] (setting [9]), 6.9 ± 0.5 nM; in assay [4] (setting [10]), 13 ± 2.7 nM; in assay [4] (setting [11]), 13 ± 2.7 nM. For the same molecule, the “Ki D168A (fold change)” value in assay [2] is 21. Besides, the “Ki R155K (fold change)” value in assay [5] is on record as 1.9.

The values above are taken from patent US11472778B2, “Hepatitis C virus NS3/4A protease inhibitors” (priority 2017, dated 2022).
